Test results reported in US9108921B2, “Therapeutic compounds and compositions” (AGIOS PHARMACEUTICALS, INC, priority 2014, dated 2015).

Assays:
PKR WT [1] = target: T1, PKR WT (Homo sapiens, UniProt P30613); assay: PKR WT enzymatic AC50 assay; type: biochemical; details: wild type PKR
Summary of the method: (§1)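 Steps: compound added to wells, then reaction mix lacking ADP; 60 min room-temperature hold; ADP (0.22-1.65 mM) added to start; A340 monitored at room temperature via PEP/LDH/NADH coupling. Top final compound concentration 100 μM, 3-fold dilutions over 11 points.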

PKR WT [2] = target: T1, PKR WT; assay: PKR WT cell based AC50 assay; details: wild type PKR
PKR R510Q = PKR R510Q (Homo sapiens, UniProt P30613, R510Q); assay: PKR Mutant Assay, AC50 against PKR R510Q; type: biochemical; details: mutant PKR R510Q enzyme
PKR R510Q, sequence (P30613 whole entry R510Q): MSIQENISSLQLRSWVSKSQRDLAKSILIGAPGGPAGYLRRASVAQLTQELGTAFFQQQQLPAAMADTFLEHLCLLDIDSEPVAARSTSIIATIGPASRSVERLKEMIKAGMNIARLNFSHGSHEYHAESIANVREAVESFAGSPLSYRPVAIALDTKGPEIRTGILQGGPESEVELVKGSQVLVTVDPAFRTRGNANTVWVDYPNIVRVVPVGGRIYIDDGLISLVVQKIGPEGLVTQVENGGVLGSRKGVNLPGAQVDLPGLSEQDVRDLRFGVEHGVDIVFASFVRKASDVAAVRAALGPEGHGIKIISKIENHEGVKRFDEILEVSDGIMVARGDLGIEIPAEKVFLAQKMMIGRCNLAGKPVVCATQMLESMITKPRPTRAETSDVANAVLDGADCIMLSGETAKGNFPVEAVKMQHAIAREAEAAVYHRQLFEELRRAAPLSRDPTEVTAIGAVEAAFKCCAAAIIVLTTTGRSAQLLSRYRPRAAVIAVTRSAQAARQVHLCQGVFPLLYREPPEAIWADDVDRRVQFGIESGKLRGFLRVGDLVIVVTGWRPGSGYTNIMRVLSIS
Summary of the method: as §1

PKR R532W = PKR R532W (Homo sapiens, UniProt P30613, R532W); assay: PKR Mutant Assay, AC50 against PKR R532W; type: biochemical; details: mutant PKR R532W enzyme
PKR R532W, sequence (P30613 whole entry R532W): as the sequence (P30613 whole entry R510Q) above, with Q510R, R532W counted along it
Summary of the method: as §1

T1 sequence (P30613 whole entry): as the sequence (P30613 whole entry R510Q) above, with Q510R counted along it

Row | SMILES | AC50 (PKR WT [1]) [nM] | AC50 (PKR WT [2]) [nM] | AC50 (PKR R510Q) [nM] | AC50 (PKR R532W) [nM]
1 | CC(C)(C)CC1(O)CCN(C(=O)c2ccc(NS(=O)(=O)c3cccc4cccnc34)cc2)CC1 [Compound 117, N-(4-(4-hydroxy-4-neopentylpiperidine-1-carbonyl)phenyl)quinoline-8-sulfonamide] | < 100 | < 100 | < 100 | < 100
2 | O=C(c1ccc(NS(=O)(=O)c2cccc3cccnc23)cc1)N1CCC(O)(CCC(F)F)CC1 [Compound 204, N-(4-(4-(3,3-difluoropropyl)-4-hydroxypiperidine-1-carbonyl)phenyl)quinoline-8-sulfonamide] | < 100 | < 100 | 101 to 1000 | < 100
3 | O=C(c1ccc(NS(=O)(=O)c2cccc3c(O)ncnc23)cc1)N1CCC(O)(CCCC(F)(F)F)CC1 [Compound 427] | < 100 | < 100 | < 100 | < 100
4 | CC(C)(C)CC1(O)CCN(C(=O)c2ccc(NS(=O)(=O)c3cccc4scnc34)cc2)CC1 [Compound 134, N-(4-(4-hydroxy-4-neopentylpiperidine-1-carbonyl)phenyl)benzo[d]thiazole-4-sulfonamide] | < 100 | < 100 | < 100 | < 100
5 | Cc1cc(C(=O)N2CCC(O)(Cc3ccccc3)CC2)ccc1NS(=O)(=O)c1cccc2cccnc12 [Compound 101, N-(4-(4-benzyl-4-hydroxypiperidine-1-carbonyl)-2-methylphenyl)quinoline-8-sulfonamide] | < 100 | < 100 | < 100 | < 100
6 | O=C(c1ccc(NS(=O)(=O)c2cccc3c(O)ncnc23)cc1)N1CCC(O)(c2cccc(F)c2F)CC1 [Compound 428] | < 100 | < 100 | 101 to 1000 | < 100
7 | CC(C)(C)CC1(O)CCN(C(=O)c2ccc(NS(=O)(=O)c3cccc4nccnc34)cc2)CC1 [Compound 130, N-(4-(4-hydroxy-4-neopentylpiperidine-1-carbonyl)phenyl)quinoxaline-5-sulfonamide] | < 100 | < 100 | < 100 | < 100
8 | O=C(c1ccc(NS(=O)(=O)c2cccc3cccnc23)cc1)N1CCC(O)(CC2CC2(F)F)CC1 (stereo not drawn) [Compound 176, N-(4-(4-((2,2-difluorocyclopropyl)methyl)-4-hydroxypiperidine-1-carbonyl)phenyl)quinoline-8-sulfonamide] | < 100 | < 100 | 101 to 1000 | < 100
9 | O=C(c1ccc(NS(=O)(=O)c2cccc3cccnc23)cc1)N1CCC(O)(CC2CC2)CC1 [Compound 144, N-(4-(4-(cyclopropylmethyl)-4-hydroxypiperidine-1-carbonyl)phenyl)quinoline-8-sulfonamide] | < 100 | < 100 | < 100 | < 100
10 | O=C(c1ccc(NS(=O)(=O)c2cccc3nccnc23)cc1)N1CCC(O)(c2ccccc2)CC1 [Compound 243, N-(4-(4-hydroxy-4-phenylpiperidine-1-carbonyl)phenyl)quinoxaline-5-sulfonamide] | 101 to 1000 | < 100 | 1010 to 10000 | 101 to 1000
11 | CC(C)CC1(O)CCN(C(=O)c2ccc(NS(=O)(=O)c3ccc(F)c4cccnc34)cc2)CC1 [Compound 203, 5-fluoro-N-(4-(4-hydroxy-4-isobutylpiperidine-1-carbonyl)phenyl)quinoline-8-sulfonamide] | < 100 | < 100 | 101 to 1000 | < 100
12 | CC(F)(F)CCC1(O)CCN(C(=O)c2ccc(NS(=O)(=O)c3cccc4scnc34)cc2)CC1 [Compound 387, N-(4-(4-(3,3-difluorobutyl)-4-hydroxypiperidine-1-carbonyl)phenyl)benzo[d]thiazole-4-sulfonamide] | < 100 | 101 to 1000 | 101 to 1000 | < 100

More lines, now with the values ahead:

Row | AC50 (PKR WT [1]) [nM] | AC50 (PKR WT [2]) [nM] | AC50 (PKR R510Q) [nM] | AC50 (PKR R532W) [nM] | SMILES
13 | < 100 | < 100 | < 100 | < 100 | O=C(c1ccc(NS(=O)(=O)c2cccc3cccnc23)cc1)N1CCC(O)(Cc2ccccc2)CC1 [Compound 131, N-(4-(4-benzyl-4-hydroxypiperidine-1-carbonyl)phenyl)quinoline-8-sulfonamide]
14 | < 100 | < 100 | 101 to 1000 | < 100 | O=C(c1ccc(NS(=O)(=O)c2cccc3cccnc23)cc1)N1CCC(O)(c2ccc(F)cc2)CC1 [Compound 194, N-(4-(4-(4-fluorophenyl)-4-hydroxypiperidine-1-carbonyl)phenyl)quinoline-8-sulfonamide]
15 | < 100 | < 100 | 101 to 1000 | < 100 | O=C(c1ccc(NS(=O)(=O)c2cccc3cccnc23)c(Cl)c1)N1CCC(O)(c2ccccc2Cl)CC1 [Compound 222, N-(2-chloro-4-(4-(2-chlorophenyl)-4-hydroxypiperidine-1-carbonyl)phenyl)quinoline-8-sulfonamide]
16 | < 100 | < 100 | < 100 | < 100 | O=C(c1ccc(NS(=O)(=O)c2cccc3cccnc23)cc1OC(F)(F)F)N1CCC(O)(c2ccccc2Cl)CC1 [Compound 136, N-(4-(4-(2-chlorophenyl)-4-hydroxypiperidine-1-carbonyl)-3-(trifluoromethoxy)phenyl)quinoline-8-sulfonamide]
17 | < 100 | < 100 | 101 to 1000 | < 100 | O=C(c1ccc(NS(=O)(=O)c2cccc3cccnc23)cc1)N1CCC(O)(c2ncccc2C(F)(F)F)CC1 [Compound 164, N-(4-(4-hydroxy-4-(3-(trifluoromethyl)pyridin-2-yl)piperidine-1-carbonyl)phenyl)quinoline-8-sulfonamide]
18 | < 100 | 101 to 1000 | < 100 | < 100 | O=C(c1ccc(NS(=O)(=O)c2cccc3cccnc23)cc1)N1CCC(O)(c2ccccc2OC(F)(F)F)CC1 [Compound 150, N-(4-(4-hydroxy-4-(2-(trifluoromethoxy)phenyl)piperidine-1-carbonyl)phenyl)quinoline-8-sulfonamide]
19 | < 100 | < 100 | 101 to 1000 | < 100 | O=C(c1ccc(NS(=O)(=O)c2cccc3cccnc23)cc1)N1CCC(O)(c2cccc(C(F)(F)F)n2)CC1 [Compound 174, N-[4-[4-hydroxy-4-[6-(trifluoromethyl)pyridin-2-yl]piperidine-1-carbonyl]phenyl]quinoline-8-sulfonamide]
20 | < 100 | < 100 | 101 to 1000 | < 100 | O=C(c1ccc(NS(=O)(=O)c2cccc3cccnc23)cc1)N1CCC(O)(c2ccccc2F)CC1 [Compound 165, N-(4-(4-(2-fluorophenyl)-4-hydroxypiperidine-1-carbonyl)phenyl)quinoline-8-sulfonamide]
21 | < 100 | < 100 | 101 to 1000 | < 100 | O=C(c1ccc(NS(=O)(=O)c2cccc3cccnc23)cc1)N1CCC(O)(Cc2cccnc2F)CC1 [Compound 168, N-(4-(4-((2-fluoropyridin-3-yl)methyl)-4-hydroxypiperidine-1-carbonyl)phenyl)quinoline-8-sulfonamide]
22 | < 100 | < 100 | < 100 | < 100 | O=C(c1ccc(NS(=O)(=O)c2cccc3cccnc23)cc1)N1CCC(O)(c2ccccc2C(F)F)CC1 [Compound 113, N-[4-[4-[2-(difluoromethyl)phenyl]-4-hydroxy-piperidine-1-carbonyl]phenyl]quinoline-8-sulfonamide]
23 | < 100 | < 100 | 101 to 1000 | < 100 | O=C(c1ccc(NS(=O)(=O)c2cccc3cccnc23)cc1)N1CCC(O)(c2cccnc2C(F)(F)F)CC1 [Compound 159, N-(4-(4-hydroxy-4-(2-(trifluoromethyl)pyridin-3-yl)piperidine-1-carbonyl)phenyl)quinoline-8-sulfonamide]
24 | < 100 | < 100 | < 100 | < 100 | CCc1ccccc1C1(O)CCN(C(=O)c2ccc(NS(=O)(=O)c3cccc4cccnc34)cc2)CC1 [Compound 127, N-(4-(4-(2-ethylphenyl)-4-hydroxypiperidine-1-carbonyl)phenyl)quinoline-8-sulfonamide]
25 | < 100 | < 100 | < 100 | < 100 | Cc1nc(F)ccc1C1(O)CCN(C(=O)c2ccc(NS(=O)(=O)c3cccc4cccnc34)cc2)CC1 [Compound 129, N-(4-(4-(6-fluoro-2-methylpyridin-3-yl)-4-hydroxypiperidine-1-carbonyl)phenyl)quinoline-8-sulfonamide]
26 | < 100 | < 100 | 101 to 1000 | < 100 | O=C(c1ccc(NS(=O)(=O)c2cccc3cccnc23)cc1Cl)N1CCC(O)(c2ccccc2Cl)CC1 [Compound 157, N-(3-chloro-4-(4-(2-chlorophenyl)-4-hydroxypiperidine-1-carbonyl)phenyl)quinoline-8-sulfonamide]
27 | 101 to 1000 | 1010 to 10000 | 1010 to 10000 | 101 to 1000 | O=C(c1ccc(NS(=O)(=O)c2cccc3cccnc23)cc1)N1CCC(O)(c2cccc(OC(F)(F)F)c2)CC1 [Compound 245, N-(4-(4-hydroxy-4-(3-(trifluoromethoxy)phenyl)piperidine-1-carbonyl)phenyl)quinoline-8-sulfonamide]
